The record followed here is PubChem BioAssay (NCI).

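All cell lines were grown in 96-well plates and treated with compound for 48 hours. Abbreviation: GI50, concentration required for 50% inhibition of growth. TGI denotes the concentration required for complete inhibition of growth.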

Some test systems named below: EKVX NSCLC; HS 578T breast; IGROV1 ovarian; OVCAR-3 ovarian; SF-539 CNS; SK-MEL-28 melanoma; SK-OV-3 ovarian; SN12C renal; T-47D breast; UACC-62 melanoma.
Holding throughout (assay): growth of human tumour cells (NCI), 48 h

Regarding `O=C(CCCCCCN1CC(=O)N2[C@@H](c3ccc(Cl)c(Cl)c3)c3[nH]c4ccccc4c3C[C@H]2C1=O)NO`, the GI50 in the assay with EKVX NSCLC is 7.71 µM; with HS 578T breast, 3.52 µM; with IGROV1 ovarian, 1.32 µM; in the assay on OVCAR-3 ovarian, 1.62 µM; in the assay on SF-539 CNS, 3.76 µM; in the assay with SK-MEL-28 melanoma it was 3.54 µM. Moreover, the GI50 was 4.58 µM in the assay with SK-OV-3 ovarian, 4.33 µM in the assay with SN12C renal, 1.58 µM in the assay on T-47D breast and 1.66 µM in the assay with UACC-62 melanoma. Besides, the TGI in the assay with EKVX NSCLC was above 33.3 µM; in the assay with HS 578T breast, 15.6 µM; in the assay with IGROV1 ovarian, 5.07 µM; in the assay with OVCAR-3 ovarian, 6.57 µM; with SF-539 CNS, 9.27 µM; with SK-MEL-28 melanoma, 9.52 µM. In addition, the TGI in the assay with SK-OV-3 ovarian worked out at 9.81 µM; with SN12C renal, 14.5 µM; in the assay with T-47D breast it was 25.2 µM; with UACC-62 melanoma, 7.07 µM.
In the case of `COc1cc(/C=C/C(=O)c2cccc(-n3cc(-c4ccc(Cl)cc4)[nH]c3=O)c2)cc(OC)c1OC`, the GI50 is 23.9 µM in the assay on EKVX NSCLC; 5.96 µM with HS 578T breast; 4.68 µM with IGROV1 ovarian; 2.48 µM with OVCAR-3 ovarian; 3.49 µM in the assay with SF-539 CNS; 10.9 µM with SK-MEL-28 melanoma. Besides, the GI50 with SK-OV-3 ovarian was 31.4 µM; in the assay on SN12C renal, 5.14 µM; with T-47D breast, 6.65 µM; in the assay on UACC-62 melanoma it was 8.88 µM. Also, the TGI was above 100 µM with EKVX NSCLC; above 100 µM with HS 578T breast; 19 µM in the assay with IGROV1 ovarian; 6.02 µM in the assay on OVCAR-3 ovarian; 14.3 µM with SF-539 CNS; 25.6 µM in the assay with SK-MEL-28 melanoma. For the same compound, the TGI in the assay on SK-OV-3 ovarian was above 100 µM; with SN12C renal it was 28.5 µM; in the assay with T-47D breast, 51.5 µM; in the assay with UACC-62 melanoma, 21.4 µM.
For `CSc1nc2sc3c(c2c(=O)n1-c1ccc(C(C)C)cc1)CCC(=O)C3`, the GI50 in the assay with EKVX NSCLC is 3.02 µM; in the assay on HS 578T breast, 2.96 µM; in the assay on IGROV1 ovarian it was 2.02 µM; with OVCAR-3 ovarian, 1.94 µM; with SF-539 CNS, 2.05 µM; with SK-MEL-28 melanoma, 2.45 µM. The GI50 in the assay with SK-OV-3 ovarian is 2.63 µM; with SN12C renal, 2.45 µM; with T-47D breast, 1.81 µM; in the assay on UACC-62 melanoma, 1.81 µM. Also, the TGI with EKVX NSCLC was above 100 µM; in the assay with HS 578T breast it was 9.64 µM; with IGROV1 ovarian, 4.88 µM; in the assay on OVCAR-3 ovarian, 3.53 µM; in the assay on SF-539 CNS, 4.1 µM; in the assay with SK-MEL-28 melanoma, 4.62 µM. Moreover, the TGI is 6.92 µM in the assay with SK-OV-3 ovarian, 6.02 µM in the assay on SN12C renal, 3.74 µM in the assay on T-47D breast and 3.49 µM in the assay with UACC-62 melanoma.
As to `COc1cc2nc(-c3cc(F)ccc3O)nc(N[C@@H]3CNC[C@H]3C(C)(C)O)c2cc1OC`, the GI50 with EKVX NSCLC was 1.44 µM; in the assay with HS 578T breast, 1.72 µM; in the assay with IGROV1 ovarian, 1.47 µM; with OVCAR-3 ovarian, 1.9 µM; with SF-539 CNS, 1.55 µM; with SK-MEL-28 melanoma it was 1.86 µM. For the same compound, the GI50 in the assay on SK-OV-3 ovarian was 2.29 µM; in the assay with SN12C renal, 1.42 µM; in the assay with T-47D breast, 2.06 µM; in the assay with UACC-62 melanoma, 1.78 µM. The TGI in the assay on EKVX NSCLC is 3.02 µM; in the assay with HS 578T breast, 5.74 µM; in the assay with IGROV1 ovarian it was 3.43 µM; in the assay on OVCAR-3 ovarian it was 3.62 µM; with SF-539 CNS it was 3 µM; with SK-MEL-28 melanoma, 3.41 µM. Also, the TGI stood at 4.72 µM with SK-OV-3 ovarian, 3.12 µM in the assay with SN12C renal, 3.98 µM with T-47D breast and 3.41 µM in the assay on UACC-62 melanoma.
With `c1ccc2c(c1)Nc1ccncc1S2`, the GI50 with EKVX NSCLC is 12.1 µM; with HS 578T breast it was 11.4 µM; with IGROV1 ovarian, 22.8 µM; in the assay with OVCAR-3 ovarian it was 18.6 µM; in the assay on SF-539 CNS it was 19.7 µM; in the assay with SK-MEL-28 melanoma, 31.5 µM. Also, the GI50 is 37 µM in the assay on SK-OV-3 ovarian, 27.8 µM in the assay on SN12C renal, 22.4 µM in the assay on T-47D breast and 16.5 µM in the assay on UACC-62 melanoma. The TGI in the assay on EKVX NSCLC was 81.5 µM; in the assay with HS 578T breast, 48.4 µM; in the assay with IGROV1 ovarian, 99.6 µM; in the assay with OVCAR-3 ovarian, 57 µM; with SF-539 CNS it was 67.1 µM; in the assay with SK-MEL-28 melanoma it was above 100 µM. Moreover, the TGI in the assay on SK-OV-3 ovarian is above 100 µM; in the assay with SN12C renal, above 100 µM; with T-47D breast, 96.3 µM; with UACC-62 melanoma, 56.9 µM.
Take `CC1(C)CC(=O)C2=C(C1)OC(N)=C(c1nc(-c3ccccc3)cs1)C2c1ccc(Br)cc1` (stereo not given): the GI50 in the assay on EKVX NSCLC is 64.5 mg/L; in the assay with HS 578T breast, 38.5 mg/L; in the assay with IGROV1 ovarian, 90.9 mg/L; in the assay with OVCAR-3 ovarian it was 59.7 mg/L; in the assay on SF-539 CNS, 94.8 mg/L; with SK-MEL-28 melanoma, 93.8 mg/L. The GI50 in the assay with SK-OV-3 ovarian was 102 mg/L; in the assay with SN12C renal, 51.8 mg/L; in the assay on T-47D breast, 44.6 mg/L; in the assay on UACC-62 melanoma it was 30.5 mg/L. Besides, the TGI in the assay with EKVX NSCLC, in the assay on HS 578T breast, with IGROV1 ovarian, in the assay with OVCAR-3 ovarian, in the assay on SF-539 CNS and in the assay with SK-MEL-28 melanoma was above 150 mg/L in each case. Moreover, the TGI in the assay with SK-OV-3 ovarian, in the assay with SN12C renal, with T-47D breast and with UACC-62 melanoma was above 150 mg/L each time.
Turning to `CCCCCCNC(=O)Oc1ccc(/C(=C(\C)c2ccc(Cl)cc2)c2ccc(OCCN3CCCCC3)cc2)cc1`, the GI50 in the assay with EKVX NSCLC is 5.04 µM; in the assay with HS 578T breast, 4.22 µM; with IGROV1 ovarian, 4.38 µM; with OVCAR-3 ovarian, 4.39 µM; in the assay on SF-539 CNS, 3.99 µM; with SK-MEL-28 melanoma, 4.34 µM. Also, the GI50 in the assay on SK-OV-3 ovarian is 5.42 µM; in the assay with SN12C renal, 4.22 µM; in the assay with T-47D breast, 0.722 µM; with UACC-62 melanoma, 4.03 µM. Moreover, the TGI in the assay on EKVX NSCLC was 14.4 µM; in the assay with HS 578T breast, 11.6 µM; in the assay on IGROV1 ovarian it was 10.5 µM; with OVCAR-3 ovarian it was 9.42 µM; in the assay on SF-539 CNS, 8.55 µM; in the assay with SK-MEL-28 melanoma it was 9.34 µM. Besides, the TGI was 13.6 µM with SK-OV-3 ovarian, 8.68 µM in the assay on SN12C renal, 7.11 µM in the assay on T-47D breast and 8.59 µM in the assay on UACC-62 melanoma.
